Experimental data as given in paper PMC11435058, “Synthesis of New Thiazole-Privileged Chalcones as Tubulin Polymerization Inhibitors with Potential Anticancer Activities” (Pharmaceuticals, 2024).

How the values were obtained:
Assay in all cases: NCI-60 anticancer screen (SRB; single dose and five doses)
ACHN = details: Homo sapiens, 48 h, read-out: Growth Percentage
SNB-75 = details: Homo sapiens, SNB-75, 48 h, read-out: Growth Percentage
CAKI-1 = details: Homo sapiens, CAKI-1, 48 h, read-out: Growth Percentage
SF-539 = details: Homo sapiens, SF-539, 48 h, read-out: Growth Percentage
HOP-92 = details: Homo sapiens, HOP-92, 48 h, read-out: Growth Percentage
DU-145 = details: Homo sapiens, DU-145, 48 h, read-out: Growth Percentage
NCI-H460 = details: Homo sapiens, NCI-H460, 48 h, read-out: Growth Percentage
BT-549 = details: Homo sapiens, BT-549, 48 h, read-out: Growth Percentage
MDA-MB-468 = type: cell-based, human; details: Homo sapiens, 48 h; MDA-MB-468; dose of 10 μM; read-out: Growth Percentage
Procedure: The methodology of the NCI anticancer screening has been described in detail elsewhere (http://www.dtp.nci.nih.gov). For detailed information, see Appendix A in the Supplementary Materials.
4.2.1. Screening of the anticancer activity against a panel of 60 cell Lines.
The methodology of the NCI anticancer screening has been described in detail elsewhere (http://www.dtp.nci.nih.gov.) Briefly, the primary anticancer assay was performed at approximately 60 human tumor cell lines panel derived from nine neoplastic diseases, in accordance with the protocol of the Drug Evaluation Branch, National Cancer Institute, Bethesda. Tested compounds were added to the culture at a single concentration (10μM) and the cultures were incubated for 48 h. End -point determinations were made with a protein binding dye, SRB. Results for each tested compound was reported as the percent of growth of the treated cells when compared to the untreated control cells. The percentage growth was evaluated spectrophotometrically versus controls not treated with test agents. […]

M14 = details: Homo sapiens, M14, 48 h, read-out: Growth Percentage
SF-268 = details: Homo sapiens, SF-268, 48 h, read-out: Growth Percentage
SR = details: Homo sapiens, 48 h, read-out: Growth Percentage
NCI-H322M = details: Homo sapiens, 48 h, read-out: Growth Percentage
A498 = details: Homo sapiens, A498, 48 h, read-out: Growth Percentage, A498; dose of 10 μM
MDA-MB-231/ATCC = details: Homo sapiens, MDA-MB-231, 48 h, read-out: Growth Percentage
SK-MEL-28 = details: Homo sapiens, SK-MEL-28, 48 h, read-out: Growth Percentage
HS 578T = details: Homo sapiens, 48 h, read-out: Growth Percentage
EKVX = details: Homo sapiens, 48 h, read-out: Growth Percentage
SF-295 = details: Homo sapiens, SF-295, 48 h, read-out: Growth Percentage
PC-3 = details: Homo sapiens, PC-3, 48 h, read-out: Growth Percentage
RPMI-8226 = details: Homo sapiens, RPMI-8226, 48 h, read-out: Growth Percentage
SW-620 = details: Homo sapiens, SW-620, 48 h, read-out: Growth Percentage
SN12C = details: Homo sapiens, 48 h, read-out: Growth Percentage
UACC-62 = details: Homo sapiens, UACC-62, 48 h, read-out: Growth Percentage
HOP-62 = details: Homo sapiens, HOP-62, 48 h, read-out: Growth Percentage

SMILES | activity at 10 µM (ACHN) [%] | activity at 10 µM (CAKI-1) [%] | activity at 10 µM (SF-539) [%] | activity at 10 µM (DU-145) [%] | activity at 10 µM (NCI-H460) [%] | activity at 10 µM (BT-549) [%] | activity at 10 µM (MDA-MB-468) [%] | activity at 10 µM (M14) [%] | activity at 10 µM (SF-268) [%] | activity at 10 µM (A498) [%] | activity at 10 µM (MDA-MB-231/ATCC) [%] | activity at 10 µM (SK-MEL-28) [%] | activity at 10 µM (HS 578T) [%] | activity at 10 µM (EKVX) [%] | activity at 10 µM (SF-295) [%] | activity at 10 µM (PC-3) [%] | activity at 10 µM (RPMI-8226) [%] | activity at 10 µM (SW-620) [%] | activity at 10 µM (SN12C) [%] | activity at 10 µM (UACC-62) [%] | other results
Cc1[nH]c(=S)sc1C(=O)/C=C/c1ccccc1 [2a, (E)-1-(4-Methyl-2-Thioxo-2,3-Dihydrothiazol-5-yl)-3-Phenylprop-2-En-1-One] | 71.8 | 52.5 | 41.7 | 27.9 | 56.7 | 68.8 | 20.8 | 77.1 | 69.8 | 106 | 70 | 85.2 | 90.1 | 73.1 | 88.9 | 77.6 | 14.1 | 69.1 | 66.1 | 65.3 | activity at 10 µM (SNB-75): 92.7%; activity at 10 µM (HOP-92): 89.6%; activity at 10 µM (SR): 32.4%; activity at 10 µM (NCI-H322M): 66.5%
Cc1[nH]c(=S)sc1C(=O)/C=C/c1cccc(F)c1 [2b, (E)-3-(3-Fluorophenyl)-1-(4-Methyl-2-Thioxo-2,3-Dihydrothiazol-5-yl)Prop-2-En-1-One] | 56 | 37.7 | 6.17 | 12.9 | 43.2 | 65.7 | -22.7 | 78.5 | 82.3 | 106 | 67.4 | 93.7 | 79.8 | 68.6 | 38.4 | 54.7 | 15.2 | 20.9 | 32.1 | 58.3 | activity at 10 µM (HOP-62): 34.8%; activity at 10 µM (SR): 6.82%; activity at 10 µM (NCI-H322M): 84.5%
Cc1[nH]c(=S)sc1C(=O)/C=C/c1ccccc1Cl [2d, (E)-3-(2-Chlorophenyl)-1-(4-Methyl-2-Thioxo-2,3-Dihydrothiazol-5-yl)Prop-2-En-1-One] | 93.4 | 68.5 | 93.6 | 76 | 82.2 | 76.8 | 30.8 | 82.3 | 80.4 | 116 | 101 | 101 | 92.8 | 35.6 | 82.5 | 71.8 | 28.6 | 82 | 80 | 72.9 | activity at 10 µM (HOP-62): 91.7%; activity at 10 µM (SR): 14.1%; activity at 10 µM (NCI-H322M): 106%
COc1ccc(/C=C/C(=O)c2sc(=S)[nH]c2C)cc1 [2l, (E)-3-(4-Methoxyphenyl)-1-(4-Methyl-2-Thioxo-2,3-Dihydrothiazol-5-yl)Prop-2-En-1-One] | 85.6 | 59 | 69.8 | 58.5 | 85.6 | 75 | 15.1 | 87.5 | 81 | 120 | 89.3 | 102 | 96.5 | 84.8 | 83.5 | 82.2 | 19.6 | 75.3 | 74.9 | 71.8 | activity at 10 µM (SNB-75): 98%; activity at 10 µM (HOP-92): 101%; activity at 10 µM (SR): 43.7%; activity at 10 µM (NCI-H322M): 92.4%
COc1ccc(/C=C/C(=O)c2sc(=S)[nH]c2C)c(OC)c1 [2n, (E)-3-(2,4-Dimethoxyphenyl)-1-(4-Methyl-2-Thioxo-2,3-Dihydrothiazol-5-yl)Prop-2-En-1-One] | 77 | 82.8 | 87.3 | 86.9 | 89.8 | 59.8 | 19.2 | 75.8 | 89.7 | 101 | 98.7 | 92.8 | 89.5 | 56.2 | 72.5 | 75.7 | 35.6 | 84.9 | 81 | 65.2 | activity at 10 µM (HOP-92): 103%; activity at 10 µM (HOP-62): 88.8%
